According to patent CN105732584A, “一种达比加群酯2-酮戊二酸盐晶型i及其制备方法和用途” (Tianjin Institute of Pharmaceutical Research Co Ltd, priority 2014, dated 2016):
≈ marks a conversion by molar mass, not a printed value.

Columns and labels:
Type in all cases: physicochemical
[1] = Stability test (stress factors): content determination by HPLC
[2] = Stability test (stress factors): change of appearance
[3] = Solubility in water at 25℃; settings: H2O
[4] = 7 days, high temperature and high humidity
[5] = high temperature and high humidity

SMILES | content remaining [1, 4] [%] | change of content with time (in words) ([1]; sealed high temperature, and high temperature with high humidity) | change of colour/appearance (in words) [2, 5] | change of colour/appearance (in words) ([2]; sealed, high temperature) | stability (in words) [1, 5] | remaining at 168 h ([1]; high temperature and humidity storage, 7 days, high temperature and high humidity) [%] | moisture absorption (in words) ([2]; high temperature and high humidity, concluded from colour change and caking) | solubility [3] [µg/mL]
CCCCCCOC(=O)N=C(N)c1ccc(NCc2nc3cc(C(=O)N(CCC(=O)OCC)c4ccccn4)ccc3n2C)cc1.O=C(O)CCC(=O)C(=O)O [达比加群酯2-酮戊二酸盐晶型I, 3-[[[2-[[[4-[[[(己氧基)羰基]氨基]亚氨甲基]苯基]氨基]甲基]-1-甲基-1H-苯并咪唑-5-基]羰基](吡啶-2-基)氨基]丙酸乙酯2-酮戊二酸盐] | ~98 | 含量随时间变化较小 | 颜色虽有变化但不大 | 颜色几乎无变化 |  |  |  | 
CCCCCCOC(=O)NC(=N)c1ccc(NCc2nc3cc(C(=O)N(CCC(=O)OCC)c4ccccn4)ccc3n2C)cc1 [达比加群酯甲磺酸盐] | < 20 |  | 颜色变化很明显且出现板结现象 | 颜色随时间产生明显变化 | 极不稳定 | < 20 | 吸潮严重 | 1800 (≈ 2870 µM)
